Common to all, as to assay: KINOMEscan competition binding
Common to all, as to settings: compound 10.0 µM

Experiment [1] relates to EIF2AK4 KD2 (human), Q9P2K8 [S808G].
The subject of experiment [2] is PIK3CA (human), P42336 [E545K].
For experiment [3], the system named is EGFR (human), P00533 [G719S].
The subject of experiment [4] is KIT (human), P10721 [V559D].
The subject of experiment [5] is FLT3 (human), P36888 [N841I].
Experiment [6] concerns EGFR (human), P00533 [746-750 del].
Experiment [7] relates to KIT (human), P10721 [D816V].
Sequence of KIT (human), P10721 [D816V] (P10721 whole entry D816V, looked up): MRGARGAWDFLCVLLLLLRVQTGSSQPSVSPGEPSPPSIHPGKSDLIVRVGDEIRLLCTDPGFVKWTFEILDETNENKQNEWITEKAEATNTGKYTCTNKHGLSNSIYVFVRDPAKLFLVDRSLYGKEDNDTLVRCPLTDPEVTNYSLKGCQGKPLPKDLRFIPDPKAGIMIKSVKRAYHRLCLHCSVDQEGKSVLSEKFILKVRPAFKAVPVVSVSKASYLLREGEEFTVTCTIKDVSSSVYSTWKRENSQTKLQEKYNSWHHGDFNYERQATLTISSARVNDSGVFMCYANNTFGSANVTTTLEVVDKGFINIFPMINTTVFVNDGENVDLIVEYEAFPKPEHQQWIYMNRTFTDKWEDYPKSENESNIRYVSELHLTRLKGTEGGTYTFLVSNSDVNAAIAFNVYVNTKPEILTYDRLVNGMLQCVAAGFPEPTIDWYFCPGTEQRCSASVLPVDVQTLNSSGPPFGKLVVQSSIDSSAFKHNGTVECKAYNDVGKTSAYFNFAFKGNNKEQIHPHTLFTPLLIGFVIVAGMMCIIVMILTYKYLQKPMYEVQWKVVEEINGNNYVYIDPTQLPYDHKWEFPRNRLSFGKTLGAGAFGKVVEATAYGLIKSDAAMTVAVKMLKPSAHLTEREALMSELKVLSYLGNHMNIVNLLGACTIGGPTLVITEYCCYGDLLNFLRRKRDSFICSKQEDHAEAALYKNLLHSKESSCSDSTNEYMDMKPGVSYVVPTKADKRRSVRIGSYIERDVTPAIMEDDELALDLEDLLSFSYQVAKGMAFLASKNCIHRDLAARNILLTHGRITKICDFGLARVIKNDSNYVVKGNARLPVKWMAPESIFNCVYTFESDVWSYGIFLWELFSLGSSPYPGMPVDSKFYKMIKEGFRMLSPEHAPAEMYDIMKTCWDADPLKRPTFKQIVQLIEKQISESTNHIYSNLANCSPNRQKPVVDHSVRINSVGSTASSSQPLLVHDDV
The test system of experiment [8] is PIK3CA (human), P42336 [Q546K].
Sequence of PIK3CA (human), P42336 [Q546K] (P42336 whole entry Q546K, looked up): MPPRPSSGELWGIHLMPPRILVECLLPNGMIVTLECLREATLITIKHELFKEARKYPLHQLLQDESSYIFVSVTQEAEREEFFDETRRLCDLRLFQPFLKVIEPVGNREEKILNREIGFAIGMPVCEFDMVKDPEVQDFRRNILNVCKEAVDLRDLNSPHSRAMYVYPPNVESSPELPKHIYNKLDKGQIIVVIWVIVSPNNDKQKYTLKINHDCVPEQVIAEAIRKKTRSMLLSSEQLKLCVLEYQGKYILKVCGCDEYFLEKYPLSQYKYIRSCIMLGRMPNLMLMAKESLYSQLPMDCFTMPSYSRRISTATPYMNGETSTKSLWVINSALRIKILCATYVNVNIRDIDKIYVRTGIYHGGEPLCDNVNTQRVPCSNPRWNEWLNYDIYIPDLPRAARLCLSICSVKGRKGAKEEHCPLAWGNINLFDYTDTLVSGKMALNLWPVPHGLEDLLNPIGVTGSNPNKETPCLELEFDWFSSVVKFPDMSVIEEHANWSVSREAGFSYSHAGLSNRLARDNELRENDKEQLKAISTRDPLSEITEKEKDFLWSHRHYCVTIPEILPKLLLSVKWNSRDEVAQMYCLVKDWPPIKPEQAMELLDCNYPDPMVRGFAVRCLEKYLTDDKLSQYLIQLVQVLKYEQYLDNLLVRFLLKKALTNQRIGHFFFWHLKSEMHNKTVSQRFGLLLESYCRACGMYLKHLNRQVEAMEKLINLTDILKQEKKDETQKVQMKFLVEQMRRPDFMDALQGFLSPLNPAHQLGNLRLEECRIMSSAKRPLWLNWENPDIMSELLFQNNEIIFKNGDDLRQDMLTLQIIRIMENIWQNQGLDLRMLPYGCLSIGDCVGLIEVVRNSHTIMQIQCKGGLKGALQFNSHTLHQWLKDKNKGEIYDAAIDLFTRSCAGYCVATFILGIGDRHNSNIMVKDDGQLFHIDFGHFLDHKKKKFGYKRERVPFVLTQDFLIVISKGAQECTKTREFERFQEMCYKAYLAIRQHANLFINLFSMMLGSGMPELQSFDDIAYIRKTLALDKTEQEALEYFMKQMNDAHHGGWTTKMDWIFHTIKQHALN
For experiment [9], the system named is FLT3 (human), P36888 [ITD].
Experiment [10] has as its system KIT (human), P10721 [V559D/T670I].
Experiment [11] relates to EGFR (human), P00533 [L861Q].
In experiment [12] the test system is PIK3CA (human), P42336 [H1047Y].
Sequence of PIK3CA (human), P42336 [H1047Y] (P42336 whole entry H1047Y, looked up): as the sequence (P42336 whole entry Q546K, looked up) above, with K546Q, H1047Y counted along it
The subject of experiment [13] is ABL1 (human), P00519 [M351T].
Experiment [14] deals with ABL1 (human), P00519 [E255K].
Experiment [15] relates to EGFR (human), P00533 [P753S; 747-752 del].
For experiment [16], the system named is PIK3CA (human), P42336 [C420R].
Sequence of PIK3CA (human), P42336 [C420R] (P42336 whole entry C420R, looked up): as the sequence (P42336 whole entry Q546K, looked up) above, with C420R, K546Q counted along it
For experiment [17], the system named is FLT3 (human), P36888 [K663Q].
Experiment [18] has as its system PIK3CA (human), P42336 [E545A].
Experiment [19] deals with PIK3CA (human), P42336 [I800L].
Sequence of PIK3CA (human), P42336 [I800L] (P42336 whole entry I800L, looked up): as the sequence (P42336 whole entry Q546K, looked up) above, with K546Q, I800L counted along it

Drawing on the kinase profiling compilation of Christmann-Franck et al. (2016), this text covers kinase still bound, per cent of control for ten molecules.

Sequence of KIT (human), P10721 [V559D/T670I] (P10721 whole entry V559D/T670I, looked up): as the sequence (P10721 whole entry D816V, looked up) above, with V559D, T670I, V816D counted along it
Sequence of EIF2AK4 KD2 (human), Q9P2K8 [S808G] (Q9P2K8 whole entry S808G, looked up): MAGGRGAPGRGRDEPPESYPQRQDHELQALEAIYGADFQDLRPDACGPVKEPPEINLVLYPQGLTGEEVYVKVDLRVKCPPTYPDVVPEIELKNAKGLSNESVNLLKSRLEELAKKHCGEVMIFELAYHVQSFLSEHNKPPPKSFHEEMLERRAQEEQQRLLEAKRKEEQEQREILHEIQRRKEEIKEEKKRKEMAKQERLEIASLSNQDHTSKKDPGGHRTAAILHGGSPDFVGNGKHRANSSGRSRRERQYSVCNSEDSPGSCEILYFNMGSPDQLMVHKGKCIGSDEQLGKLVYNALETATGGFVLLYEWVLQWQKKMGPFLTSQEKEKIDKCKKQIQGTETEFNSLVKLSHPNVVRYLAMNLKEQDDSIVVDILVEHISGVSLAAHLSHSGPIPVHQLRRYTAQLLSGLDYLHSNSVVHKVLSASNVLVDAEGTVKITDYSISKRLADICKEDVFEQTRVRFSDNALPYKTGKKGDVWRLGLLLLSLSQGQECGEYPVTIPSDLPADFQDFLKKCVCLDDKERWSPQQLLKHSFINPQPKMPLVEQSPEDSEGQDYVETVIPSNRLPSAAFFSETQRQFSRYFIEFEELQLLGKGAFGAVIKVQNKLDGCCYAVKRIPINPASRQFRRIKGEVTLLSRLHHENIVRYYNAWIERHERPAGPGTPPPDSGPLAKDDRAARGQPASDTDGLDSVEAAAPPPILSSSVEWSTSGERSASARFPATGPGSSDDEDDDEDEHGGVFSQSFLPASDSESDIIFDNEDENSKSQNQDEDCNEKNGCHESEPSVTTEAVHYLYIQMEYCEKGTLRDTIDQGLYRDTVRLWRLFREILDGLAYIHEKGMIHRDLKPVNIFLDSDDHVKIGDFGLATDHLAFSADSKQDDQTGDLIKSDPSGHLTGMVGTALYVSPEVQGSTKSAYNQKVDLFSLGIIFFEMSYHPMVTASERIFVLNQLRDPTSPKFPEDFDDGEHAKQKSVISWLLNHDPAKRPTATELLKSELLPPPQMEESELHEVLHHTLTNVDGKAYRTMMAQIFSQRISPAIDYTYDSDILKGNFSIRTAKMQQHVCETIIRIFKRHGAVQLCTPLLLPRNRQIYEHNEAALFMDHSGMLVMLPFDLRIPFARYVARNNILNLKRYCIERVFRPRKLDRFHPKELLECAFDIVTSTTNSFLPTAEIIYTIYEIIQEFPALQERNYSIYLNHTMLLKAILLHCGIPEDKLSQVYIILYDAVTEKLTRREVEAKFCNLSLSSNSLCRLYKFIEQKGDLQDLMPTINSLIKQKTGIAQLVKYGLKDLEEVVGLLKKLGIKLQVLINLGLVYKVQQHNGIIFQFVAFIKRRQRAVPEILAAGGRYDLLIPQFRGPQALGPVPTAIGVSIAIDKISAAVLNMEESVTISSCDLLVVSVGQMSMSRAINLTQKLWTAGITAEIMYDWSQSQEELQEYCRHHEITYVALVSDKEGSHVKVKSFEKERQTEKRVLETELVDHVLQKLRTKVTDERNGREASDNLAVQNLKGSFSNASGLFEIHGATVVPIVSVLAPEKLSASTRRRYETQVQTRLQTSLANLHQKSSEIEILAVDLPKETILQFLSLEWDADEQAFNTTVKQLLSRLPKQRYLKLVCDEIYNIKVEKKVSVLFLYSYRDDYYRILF
Sequence of KIT (human), P10721 [V559D] (P10721 whole entry V559D, looked up): as the sequence (P10721 whole entry D816V, looked up) above, with V559D, V816D counted along it
Sequence of PIK3CA (human), P42336 [E545A] (P42336 whole entry E545A, looked up): as the sequence (P42336 whole entry Q546K, looked up) above, with E545A, K546Q counted along it
Sequence of PIK3CA (human), P42336 [E545K] (P42336 whole entry E545K, looked up): as the sequence (P42336 whole entry Q546K, looked up) above, with E545K, K546Q counted along it

`N#CCNC(=O)c1ccc(-c2ccnc(Nc3ccc(N4CCOCC4)cc3)n2)cc1`: the kinase still bound, per cent of control in experiment [1] was determined as 1.2%; in [2], 100%; in [3] it was 79%; in [4], 16%; in [5], 2.2%; in experiment [6] it was 100%. Moreover, the kinase still bound, per cent of control in experiment [7] amounted to 16%; in experiment [8], 100%; in [9], 22%; in experiment [10], 45%; in experiment [11], 66%; in [12], 100%. For the same molecule, the kinase still bound, per cent of control in experiment [13] was 66%; in experiment [14], 29%; in [15], 100%; in [16] it was 100%.
For the molecule `COCC(=O)NC/C=C/c1ccc2ncnc(Nc3ccc(Oc4ccc(C)nc4)c(C)c3)c2c1`, the kinase still bound, per cent of control was 81% in experiment [1]; 100% in experiment [2]; 79% in [17]; 17% in experiment [4]; 79% in experiment [5]; 33% in [18]. In addition, the kinase still bound, per cent of control is 89% in experiment [7]; 38% in experiment [8]; 100% in experiment [19]; 87% in [9]; 100% in experiment [10]; 47% in [12].
Consider `NC(=O)Nc1cc(-c2cccc(F)c2)sc1C(=O)N[C@@H]1CCCNC1`, for which the kinase still bound, per cent of control in [1] is 0.3%; in [2], 100%; in [3], 0%; in experiment [17] it was 0.1%; in experiment [5], 0%; in experiment [6], 4.2%. The kinase still bound, per cent of control in experiment [18] turned out to be 16%; in experiment [8], 83%; in [19], 100%; in experiment [9], 0%; in [11], 1.5%; in experiment [12], 36%. In addition, the kinase still bound, per cent of control came out at 0% in experiment [13], 0% in experiment [14], 4.6% in experiment [15] and 62% in experiment [16].
In the case of `CCc1nc(-c2cccc(C)c2)c(-c2ccnc(NC(=O)c3ccccc3)c2)s1`, the kinase still bound, per cent of control in experiment [1] was 100%; in experiment [2], 98%; in [17], 17%; in [4], 32%; in experiment [5], 28%; in experiment [18], 54%. In addition, the kinase still bound, per cent of control in experiment [7] was found to be 5.6%; in experiment [8], 32%; in experiment [19] it was 99%; in experiment [9], 50%; in [12], 50%; in [14], 24%. The kinase still bound, per cent of control in experiment [16] was determined as 72%.
For `C[C@@H](Oc1cc(-c2cnn(C3CCNCC3)c2)cnc1N)c1c(Cl)ccc(F)c1Cl`, the kinase still bound, per cent of control in experiment [1] was 100%; in experiment [2] it was 100%; in experiment [17], 5.6%; in experiment [4], 27%; in experiment [5], 2%; in [18] it was 21%. Besides, the kinase still bound, per cent of control amounted to 32% in experiment [7]; 17% in [8]; 7% in [10]; 18% in [12]; 71% in experiment [16].
On to `N#C/C(=C1/Nc2ccccc2S1)c1ccnc(NCCc2cccnc2)n1`, for which the kinase still bound, per cent of control was 60% in [1]; 96% in experiment [2]; 95% in experiment [17]; 26% in experiment [4]; 48% in experiment [5]; 41% in [18]. For the same molecule, the kinase still bound, per cent of control worked out at 50% in experiment [7]; 81% in experiment [8]; 27% in [19]; 92% in experiment [9]; 52% in experiment [10]; 66% in experiment [12]. Further, the kinase still bound, per cent of control was found to be 88% in [13], 79% in experiment [14] and 86% in experiment [16].
With `CNC(=O)c1cc(Oc2ccc(NC(=O)Nc3ccc(Cl)c(C(F)(F)F)c3)cc2)ccn1`, the kinase still bound, per cent of control in [17] worked out at 0.5%; in experiment [4], 0.05%; in [5], 0.25%; in [7], 3.6%; in [9], 2.8%; in experiment [10] it was 0.1%.
`CC(=O)c1c(C)c2cnc(Nc3ccc(N4CCNCC4)cn3)nc2n(C2CCCC2)c1=O`: the kinase still bound, per cent of control turned out to be 0.4% in experiment [1]; 75% in [2]; 30% in experiment [17]; 45% in experiment [4]; 2.1% in [5]; 10% in [18]. Moreover, the kinase still bound, per cent of control in experiment [7] was 74%; in [8], 10%; in [19], 6%; in experiment [9], 20%; in experiment [10], 61%; in [11], 82%. Besides, the kinase still bound, per cent of control stood at 17% in experiment [12], 44% in [14], 87% in [15] and 41% in [16].
Consider `COc1cc2ncn(-c3cc(OCc4ccccc4C(F)(F)F)c(C(N)=O)s3)c2cc1OC`, for which the kinase still bound, per cent of control in [1] was 16%; in experiment [2], 90%; in [3], 98%; in experiment [4] it was 21%; in [18] it was 54%; in experiment [7], 1.4%. Moreover, the kinase still bound, per cent of control in [8] was 96%; in experiment [19] it was 24%; in [9], 26%; in experiment [10] it was 21%; in experiment [11], 100%; in experiment [12] it was 36%. Besides, the kinase still bound, per cent of control came out at 81% in experiment [13], 60% in [14], 63% in [15] and 100% in experiment [16].
Take `CCN1CCN(Cc2ccc(NC(=O)c3ccc(C)c(/C=C/c4cnc5[nH]ccc5c4OC)c3)cc2C(F)(F)F)CC1`: the kinase still bound, per cent of control in experiment [1] was 0.6%; in experiment [2] it was 100%; in experiment [3], 0%; in experiment [17], 0.05%; in [4], 0%; in experiment [5], 0.25%. The kinase still bound, per cent of control in experiment [6] is 3.8%; in experiment [18], 92%; in [7], 0.65%; in experiment [19], 100%; in experiment [9] it was 0.35%; in experiment [10], 0.05%. Besides, the kinase still bound, per cent of control is 0% in [11]; 90% in [12]; 2.2% in experiment [13]; 1% in experiment [14]; 0.55% in experiment [15]; 100% in experiment [16].
